How the values were obtained:
[1] = Rose Bengal release from dense PCL capsules with silicone oil carriers into PBS; type: physicochemical; conditions: Silikon 1000 in dense PCL capsule
[2] = assumed input value, ref (20); cited from earlier work

- dissolution of Rose Bengal in hydrophobic silicone oil [1]: never dissolves in the oil
Structure (SMILES): O=C([O-])c1c(Cl)c(Cl)c(Cl)c(Cl)c1-c1c2cc(I)c(=O)c(I)c-2oc2c(I)c([O-])c(I)cc12.[Na+].[Na+] [Rose Bengal, Rose Bengal sodium salt]
- RB diffusivity in PBS [2]: 4.8×10^−10 m^2 s^−1

Source: US20250090466A1, “DRUG DELIVERY COMPOSITIONS AND DEVICES” (Ohio State Innovation Foundation, priority 2022, published 2025)
